The assay relates to male Balb/c mice. Description: Effect on increasing erythrocyte of normal mice (reticulocyte count). The class given is in vivo. The arrangement: unit not given here. Here is the method:
Biological Example 3: Effect of the Compounds of the Present Invention on Increasing Erythrocyte of Normal Mice
80 male Balb/c mice were divided into 11 groups, with 8 animals for each drug group, 10 animals for blank control group. Drug group: AKB-6548, 100 mg/kg, oral administration, once a day×3; FG-4592, 25 mg/kg, oral administration, once a day×3; EPO, 100 IU/kg, Day 1 and Day 3, subcutaneous injection, as positive control groups. Each of the compounds of the present invention was orally administrated at 25 mg/kg, once a day×3. Four hours after the last administration, orbital blood of all animals were collected and treated with EDTA-K2 anticoagulant, and reticulocytes (RETIC) were counted with a blood cell automated analyzer.

[1] abbreviates: 25 mg/kg oral, once a day × 3, four hours after the last administration.
Setting [2] is: 100 IU/kg subcutaneous injection, Day 1 and Day 3, four hours after the last administration.
[3] abbreviates: 100 mg/kg oral, once a day × 3, four hours after the last administration.

Values joined by “and” are separate entries in the source; they are usually repeats but may differ in a detail not shown here. Equal values may be shown once.

For `Cc1nc(C(=O)NCC(=O)O)c(O)c2ccc(Oc3ccccc3)cc12` [FG-4592-A, reference compound], under setting [1], the “RETIC, Average” value is given as 3.73; the “RETIC, individual mice” value was 3.8 (2×) and 4 (2×) and 3.5 and 4.4 and 3.4 and 3.6.
As to `Cc1nc(C(=O)NCC(=O)O)c(O)c2ccc(Oc3ccccc3)nc12` [Compound 1, 2-(5-hydroxy-8-methyl-2-phenoxy-1,7-naphthyridine-6-formamido) acetic acid], under setting [1], the “RETIC, Average” value came to 4.73; the “RETIC, individual mice” value is 4.4 and 5.2 and 4.8 and 5 and 5.3 and 4.1 (2×) and 4.9.
Turning to “EPO: erythropoietin, glycoprotein hormone; exogenous positive control given subcutaneously”, under setting [2], the “RETIC, Average” value turned out to be 3.73; the “RETIC, individual mice” value was 5.9 and 2.5 and 2.2 (2×) and 2.6 and 4.3 and 5.1 and 5.
For `COc1ccc(Oc2ccc3c(O)c(C(=O)NCC(=O)O)nc(C)c3n2)cc1` [Compound 14, 2-(5-hydroxy-2-(4-methoxyphenoxy)-8-methyl-1,7-naphthyridine-6-formamido) acetic acid], under setting [1], the “RETIC, Average” value is 5.73; the “RETIC, individual mice” value is 6.1 and 6.6 and 5.8 (2×) and 6.5 and 5.7 and 4.4 and 4.9.
As for `Cc1nc(C(=O)NCC(=O)O)c(O)c2ccc(Oc3ccc4c(c3)OCCO4)nc12` [Compound 12, 2-(2-((2,3-dihydrobenzo[b][1,4]dioxo-6-yl)oxy)-5-hydroxy-8-methyl-1,7-naphthyridine-6-formamido) acetic acid], under setting [1], the “RETIC, Average” value was found to be 5.24; the “RETIC, individual mice” value was 5.4 and 5 (3×) and 6 and 5.6 (2×) and 4.3.
Regarding `O=C(O)CNC(=O)c1ncc(-c2cccc(Cl)c2)cc1O` [AKB-6548-A, reference compound], under setting [3], the “RETIC, Average” value worked out at 4.75; the “RETIC, individual mice” value was 6.1 and 4 (2×) and 4.2 (2×) and 4.9 and 5.3 (2×).
